Source: patent US9708359B2, “Pyrrolopyrimidine nucleosides and analogs thereof” (Chimerix, Inc., priority 2015, dated 2017)
“Also recorded” adds a separate entry of the source. Where two headings read alike, the source gives them in different places.

What was measured:
BKV = assay: qPCR assay for BKV; type: cell-based, BK virus; conditions: Betapolyomavirus hominis, HFF cells
Description: qPCR Assays for BKV and JCV:
Primary assays for BK virus were performed in 96-well plates containing monolayers of HFF cells. Compound dilutions were prepared in plates containing cells which were subsequently infected at with the Gardner strain of BK virus. After a 7 d incubation, total DNA was prepared with a purification kit and genome copy number was quantified by real time PCR. Compounds that were positive in this assay were confirmed in a similar assay in 96-well plates with the compounds added 1 h […] to identify compounds that inhibit early stages of replication including adsorption and penetration. Genome copy number was determined by methods described above.
Primary assays for BK virus were performed in 96-well plates containing monolayers of HFF cells. Compound dilutions were prepared in plates containing cells which were subsequently infected at with the Gardner strain of BK virus. After a 7 d incubation, total DNA was prepared with a Wizard SV 96 well purification kit and genome copy number was quantified by real time PCR using the primers 5′-[…]-3′ (SEQ ID No. 8) , 5′-[…]-3′ (SEQ ID No. 9) and probe 5-6-FAM […]-3′ (SEQ ID No. 10) . Plasmid pMP526 served as the DNA standard for quantitation purposes. […] Genome copy number was determined by methods described above.

[1] = Cytotoxicity in lymphocyte assays, BCBL-1 cells; type: cell-based; conditions: human, parallel to HHV-8 assay
Description: Every antiviral assay included a parallel cytotoxicity assay with the same cells used for each virus, the same cell number, the same drug concentrations, and the same incubation times to provide the same drug exposure. To ensure that the cytotoxicity of all compounds could be compared directly, a standard neutral red uptake cytotoxicity assay for all compounds in confluent HFF cells with a 7 d incubation period was performed.
Cytotoxicity in Lymphocyte Assays:
Cell viability in all assays with lymphocytes was assessed with a luminescent Cell Viability Assay. Briefly, assay plates were incubated at ambient temperature for 30 min then luminescent reagent was added to each well and the plates were mixed to lyse the cells. Plates were then incubated for at ambient temperature and the luminescence was quantified on a luminometer. Standard methods were used to calculate drug concentrations that inhibited the proliferation of cells by 50% (CC50).
Cell viability in all assays with lymphocytes was assessed with the CellTiter-Glo Luminescent Cell Viability Assay (Promega). […] Plates were then incubated for an additional 10 min at ambient temperature and the luminescence was quantified on a luminometer. […]

[2] = tested on: murine norovirus (MNV) CR3; assay: Study No. 1: efficacy against Murine Norovirus infection in mice; type: in vivo, BALB/c mice; conditions: for murine norovirus titer in tissue and feces: 30, 100, 300 mg/kg/day BID oral gavage from day −2, 10^6 PFU, day 3 post-infection
Description: Study No. 1 evaluated the efficacy of twice-daily dosing of Compound 1 over a range of 30 mg/kg to 300 mg/kg, initiated prior to infection of mice with 10^6 plaque-forming units (PFU) of murine norovirus (MNV) CR3. A control group of mice treated with vehicle was also included. All doses were started 2 days (39 hours) prior to infection.
Compound was delivered twice daily at indicated doses via oral gavage. A control group of mice treated with vehicle only was also included. Mice were infected with murine norovirus by pipetting virus into mouth 2 days after the first dose. Mice were housed on metal grates and combined fecal output was collected every 24 hours. Tissues (distal ileum and cecum) and individual fecal pellets were harvested on day 3 post inoculation. All samples were titered by plaque assay.
For both studies, compound was delivered via oral gavage at the indicated doses and times prior to infection. Mice were infected with murine norovirus CR3 by pipetting virus into mouth 3 hours after the first day 0 dose of Compound 1 was given. Following infection, compound was administered twice daily through day 3 post-infection.
The mice used were ˜20 gram, 8-12 week old female BALB/c mice in groups of 5. Mice were housed on metal grates and combined fecal output was collected every 24 hours, starting at day −1. Tissues (˜1 cm of distal ileum and cecum) and individual fecal pellets were harvested on day 3 post-infection and weighed. All samples were titered by plaque assay (qRT-PCR as back-up when titers are too low); titers were normalized to gram of tissue or feces. On day 3, duplicate samples of tissue (˜1 cm of distal ileum and cecum) were collected, rinsed in PBS, and snap frozen; serum and a duplicate feces sample were also collected on day 3 and snap frozen; this set of sample was submitted for MS analysis to assess drug bioavailability.

HFF = HFF cells
mouse norovirus = assay: Mouse Norovirus (MNV) assay in RAW cells

For `Cc1nc(N)c2c(C(N)=O)cn([C@@H]3O[C@H](CO)[C@@H](O)[C@H]3O)c2n1` [Compound 1, 4-amino-7-((2R,3R,4S,5R)-3,4-dihydroxy-5-(hydroxymethyl)tetrahydrofuran-2-yl)-2-methyl-7H-pyrrolo[2,3-d]pyrimidine-5-carboxamide], the EC50 (BKV) was over 60 µM, the CC50 [1] was 46.8 µM and the “murine norovirus titer in tissue and feces” value [2] was “effective in reducing the titer of murine norovirus in both tissue and feces”. For the same compound, the “murine norovirus titer in tissue and feces” value ([2]; listed as compound 1) was “reduce the viral load in mice infected with murine norovirus in a dose-dependent manner; also recorded: showed a reduction in PFU/gram with increasing dose”, the “virus titer in tissue and feces compared with vehicle” value ([2]; twice-daily 300 mg/kg) was “significant reduction in virus titer” and the CC50 (HFF; parallel to BKV assay) was over 60 µM. The CC50 (HFF; parallel to HSV-2 assay) was over 60 µM, the CC50 (HFF; parallel to VACV assay) was over 60 µM and the CC50 (HFF; parallel to VZV assay) was over 60 µM. The EC50 (mouse norovirus; Norovirus, in Mus musculus, read-out: EC50 value against mouse norovirus, in vitro, unit inferred) was about 2.1 µM, the EC50 (mouse norovirus; Norovirus, in Mus musculus, read-out: MNV Mean EC50, RAW cells) was 2 µM and the EC50 (mouse norovirus; murine norovirus, Table 7) was 1.7 to 3.6 µM.
